Laboratory results taken from patent publication US10174078B2, “Keratan sulfate specific transporter molecules” (PHI PHARMA SA, priority 2014, dated 2019).
Square brackets hold non-standard residues; d marks the D form. Ends that are not written are not given here. Peptide text beside a SMILES is read from it. 3'AdT = not defined here

Experiments:
[1] = estimation of in vivo stability: incubation of peptides with fetal calf serum; assay type: in vitro ADME; conditions: 37° C.; for degradation in fetal calf serum: 6 hr; for remaining at 6 h: fetal calf serum, read-out: stable at 6 hours
Method: In vivo stability was estimated by mixing peptides with fetal calf serum and incubating at 37° C. for 6 hr. Samples were tested at both 0 and 6 hours.

MDCK cells = test: viability of MDCK cultures by trypan blue exclusion after 96 hour incubation with BAM-conjugate; assay type: cell-based; conditions: 0.5 μM to 10 μM tested
Method: The activity of peptides of the invention as targeting moieties was tested in vitro in preliminary studies using cells lines expressing KS. The nucleoside analog 3′ amino deoxythymidine (3′AdT) was conjugated to the amino-terminus of the peptide “RYRI” (RYKvRlK (SEQ ID NO:7)) using a single D-Glu residue (3′AdT-e-RYRI).
Confluent cultures of MDCK were passaged at 1/20 dilution and exponentionally growing cells were incubated for 96 hours with concentrations of the nucleoside analog conjugates ranging from 0.5 μM to 10 μM. Viability was subsequently assessed using trypan blue exclusion.

keratan-sulfate (KS) = test: modified ELISA: binding of peptides to plate-coated keratan-sulfate; conditions: plates coated with 1 mg/ml KS, 1 mg/ml peptide, 1 hour at room temperature
Method: The binding of the seven-mer peptides of the invention to KS as predicted by the models, in particular, as compared to the binding to other proteoglycans was tested using a modified ELISA protocol. ELISA plates were coated overnight with 1 mg/ml of heparin sulfate (HS), chondroitin-4-sulfate (C4S), chondroitin-6-sulfate (C6S) or keratan-sulfate (KS) in PBS. The wells were then washed with PBS and incubated for 1 hour at room temperature with 1 mg/ml of an exemplary peptide of the invention having the sequence RYKvRIK (“RYK-KS”; SEQ ID NO:7) or a standard TAT peptide. The plates were then thoroughly washed with PBS and subsequently photographed with a LUMASCOPE™ luminescent microscope. Images were then quantified using the ImageJ software (FIG. 4).
The same modified ELISA protocol was used to examine the impact of modifying the freely-selectable positions 2, 4 and 6 on the specific binding to KS.
The impact of sequence variation on specific binding was also investigated with select peptides using the above described modified ELISA.

## CC[C@H](C)[C@H](N)C(=O)N[C@@H](CCCNC(=N)N)C(=O)N[C@H](C(=O)N[C@H](CCCCN)C(=O)N[C@H](C(=O)N[C@H](CCCNC(=N)N)C(=O)N[C@H](C(=O)N[C@@H](CCCCN)C(=O)O)[C@@H](C)CC)[C@@H](C)CC)[C@@H](C)CC [IRIkIrIK] (HELM PEPTIDE1{I.R.I.[dK].I.[dR].I.K}$$$$V2.0; N-terminus and C-terminus assumed)
[1]
  degradation in fetal calf serum: no degradation
  remaining at 6 h: 100%

## CC[C@H](C)[C@H](NC(=O)[C@H](CCCNC(=N)N)NC(=O)[C@H](NC(=O)[C@H](CCCCN)NC(=O)[C@H](Cc1ccc(O)cc1)NC(=O)[C@@H](N)CCCNC(=N)N)C(C)C)C(=O)N[C@@H](CCCCN)C(=O)O [RYK-KS, RYKvRIK] (HELM PEPTIDE1{R.Y.K.[dV].R.I.K}$$$$V2.0; N-terminus and C-terminus assumed)
[1]
  degradation in fetal calf serum: no degradation
  remaining at 6 h: 100%

## D-linked conjugate: 3′AdT conjugated to the amino-terminus of the peptide RYRI (RYKvRIK) by a single D-Glu residue ({3'AdT}-[dE]RYK[dV]RIK; reading uncertain; also: printed as RYKvRIK)
MDCK cells
  concentrations with substantial effects on viability: ≥ 0.5 µM

## RKKRRQRR (Artificial TAT control peptide) [standard TAT peptide]
keratan-sulfate (KS)
  binding to KS: increases in binding that were likely non-selective

## RPKHRPK [RPKHRPK]
[1]
  degradation in fetal calf serum: completely degraded

## RRRRRRRRR [pure arginine 9-mer]
keratan-sulfate (KS)
  binding to KS: increases in binding that were likely non-selective

## RYKvFIKPRh (RYK[dV]FIKPR[dH])
keratan-sulfate (KS)
  binding to KS: eliminated binding activity

## RYKvRPKYF (RYK[dV]RPKYF) [control peptide with proline at position 6]
keratan-sulfate (KS)
  binding to KS: eliminated binding activity
